Data: ChEMBL document CHEMBL5120920, “A Mitochondria-Targeted Phenylbutyric Acid Prodrug Confers Drastically Improved Anticancer Activities” (J Med Chem, 2022)
The source made the active and inactive calls. The rule behind the calls is not given here.

Tests used:
A549 = test: Antiproliferative activity against human A549 cells assessed as inhibition of cell viability incubated for 72 hrs by MTT assay; format: functional, cell-based; settings: A549, 72 h
MDA-MB-231 = test: Antiproliferative activity against human MDA-MB-231 cells assessed as inhibition of cell viability incubated for 72 hrs by MTT assay; format: functional, cell-based; settings: MDA-MB-231, 72 h
A-375 [1] = test: Antiproliferative activity against human A-375 cells assessed as inhibition of cell viability incubated for 72 hrs by MTT assay; format: functional, cell-based; settings: A-375, 72 h
MCF7 = test: Antiproliferative activity against human MCF7 cells assessed as inhibition of cell viability incubated for 72 hrs by MTT assay; format: functional, cell-based; settings: MCF7, 72 h
A-375 [2] = test: Effect on mitochondrial bio-energestics in human A-375 cells assessed as increase in OCR/ECRA ratio at 5 mM measured after 4 hrs; format: functional, cell-based
A-375 [3] = test: Induction of cell cycle arrest in human A-375 cells assessed as accumulation at G1 phase at 10 mM incubated for 24 hrs by PI staining based flow cytometry analysis (reference value: 68.07 %); format: functional
[4] = Efflux ratio of apparent permeability from basolateral to apical side over apical to basolateral side in human Caco2 cells by LC-MS/MS analysis; format: ADME, cell-based; settings: Caco-2
A-375 [5] = test: Antitumor activity against human A-375 cells xenografted in nude mouse assessed as tumor inhibition ratio at 80 mg/kg, ip measured once every two days for 14 days; format: functional; settings: A-375, 336 h, time 14 day, read-out: TGI
A-375 [6] = test: Induction of cell cycle arrest in human A-375 cells assessed as accumulation at G2 phase at 10 mM incubated for 24 hrs by PI staining based flow cytometry analysis (reference value: 7.92 %); format: functional
[7] = Apparent permeability across apical to basolateral side in human Caco-2 cells at 2 uM measured after 2 hrs by LC-MS/MS analysis; format: ADME, cell-based
[8] = Apparent permeability across basolateral to apical side in human Caco-2 cells at 2 uM measured after 2 hrs by LC-MS/MS analysis; format: ADME, cell-based
A-375 [9] = test: Inhibition of glycolysis in human A-375 cells assessed as reduction in extracellular acidification rate at 5 mM measured after 4 hrs; format: functional, cell-based
A-375 [10] = test: Induction of cell cycle arrest in human A-375 cells assessed as accumulation at S phase at 10 mM incubated for 24 hrs by PI staining based flow cytometry analysis (reference value: 24.01 %); format: functional
[11] = Toxicity in BALB/c mouse assessed as change in body weight at 20 mg/kg, iv measured once every two days for 7 days; format: organism-based; settings: in vivo, 168 h, time 7 day
A-375 [12] = test: Antitumor activity against human A-375 cells implanted in BALB/c mouse assessed as suppression of tumor growth at 20 mg/kg, ip measured once every two days for 14 days; format: functional, organism-based; settings: time 14.0 day
A-375 [13] = test: Antitumor activity against human A-375 cells implanted in BALB/c mouse assessed as reduction in tumor weight at 20 mg/kg, ip measured once every two days for 14 days; format: functional, organism-based; settings: time 14.0 day
A-375 [14] = test: Antitumor activity against human A-375 cells implanted in BALB/c mouse assessed as shrinkage of tumor tissue at 20 mg/kg, ip measured once every two days for 14 days; format: functional, organism-based; settings: time 14.0 day
[15] = Cytotoxicity against HEK293T cells assessed as cell growth inhibition measured after 72 hrs by MTT assay; format: toxicity, cell-based, HEK-293T; settings: human
[16] = Cytotoxicity against HUVEC assessed as cell growth inhibition measured after 72 hrs by MTT assay; format: toxicity, cell-based; settings: human
[17] = Cytotoxicity against human L02 cells assessed as cell growth inhibition measured after 72 hrs by MTT assay; format: toxicity, cell-based
[18] = Cytotoxicity against human HaCaT cells assessed as cell growth inhibition measured after 72 hrs by MTT assay; format: toxicity, cell-based
A-375 [19] = test: Induction of cell cycle arrest in human A-375 cells assessed as accumulation at S phase at 10 uM incubated for 24 hrs by PI staining based flow cytometry analysis (reference value: 24.01 %); format: functional
A-375 [20] = test: Induction of cell cycle arrest in human A-375 cells assessed as accumulation at G1 phase at 10 uM incubated for 24 hrs by PI staining based flow cytometry analysis (reference value: 68.07 %); format: functional
A-375 [21] = test: Induction of cell cycle arrest in human A-375 cells assessed as accumulation at G2 phase at 10 uM incubated for 24 hrs by PI staining based flow cytometry analysis (reference value: 7.92 %); format: functional

SMILES | IC50 (A549) [µM] | IC50 (MDA-MB-231) [µM] | IC50 (A-375 [1]) [µM] | IC50 (MCF7) [µM] | also measured
O=C(CCCc1ccccc1)NCC(CNC(=O)CCCc1ccccc1)(CNC(=O)CCCc1ccccc1)NC(=O)CCCCCCCCC[P+](c1ccccc1)(c1ccccc1)c1ccccc1 | 0.81 | 0.31 | 0.42 | 0.54 | 
O=C(O)CC[P+](c1ccccc1)(c1ccccc1)c1ccccc1 | > 20 | > 20 | > 20 | > 20 | 
O=C(O)CCCCCCCCC[P+](c1ccccc1)(c1ccccc1)c1ccccc1 | > 20 | > 20 | > 20 | > 20 | 
O=C(O)CCCC[P+](c1ccccc1)(c1ccccc1)c1ccccc1 | > 20 | > 20 | > 20 | > 20 | 
N#Cc1ccc([P+](CCCCCCCCCC(=O)O)(c2ccc(C#N)cc2)c2ccc(C#N)cc2)cc1 | > 20 | > 20 | > 20 | > 20 | 
O=C(CCCc1ccccc1)NCC(CNC(=O)CCCc1ccccc1)(CNC(=O)CCCc1ccccc1)NC(=O)CCCCCCC[P+](c1ccccc1)(c1ccccc1)c1ccccc1 | 1.42 | 0.59 | 1.19 | 1.31 | 
N#Cc1ccc([P+](CCCCCCCCCC(=O)NC(CNC(=O)CCCc2ccccc2)(CNC(=O)CCCc2ccccc2)CNC(=O)CCCc2ccccc2)(c2ccc(C#N)cc2)c2ccc(C#N)cc2)cc1 | 4.06 | 3.96 | > 10 | 8.56 | 
CCOC(=O)CCCc1ccccc1 |  |  | > 2000 |  | 
O=C(CCCc1ccccc1)NCC(CNC(=O)CCCc1ccccc1)(CNC(=O)CCCc1ccccc1)NC(=O)CCCCC[P+](c1ccccc1)(c1ccccc1)c1ccccc1 | 7.7 | 3.62 | 3.26 | 2.46 | 
O=C(CCCc1ccccc1)NCC(CNC(=O)CCCc1ccccc1)(CNC(=O)CCCc1ccccc1)NC(=O)CCCCCCCCC[P+](c1ccc(F)cc1)(c1ccc(F)cc1)c1ccc(F)cc1 | 2.19 | 1.28 | 1.29 | 2.26 | 
O=C(O)CCCc1ccccc1 | 9750 | 11700 | 8940 | 10700 | Activity (A-375 [2]): Active; Activity (A-375 [3]): 87.33%; efflux ratio [4]: > 1.54; inhibition in vivo at 80 mg/kg (A-375 [5]): 10%; Activity (A-375 [6]): 5.38%; Papp A→B at 2 h, 2 µM [7]: < 0.48 ×10⁻⁶ cm/s; Papp B→A at 2 h, 2 µM [8]: 0.74 ×10⁻⁶ cm/s; inhibition (A-375 [9]): Active; Activity (A-375 [10]): 7.4%
O=C(CCC[P+](c1ccccc1)(c1ccccc1)c1ccccc1)NC(COC(=O)CCCc1ccccc1)(COC(=O)CCCc1ccccc1)COC(=O)CCCc1ccccc1 | 0.65 | 1.28 | 1.29 | 0.62 | 
COc1cccc([P+](CCCCCCCCCC(=O)O)(c2cccc(OC)c2)c2cccc(OC)c2)c1 | > 20 | > 20 | > 20 | > 20 | 
Cc1ccc([P+](CCCCCCCCCC(=O)O)(c2ccc(C)cc2)c2ccc(C)cc2)cc1 | > 20 | > 20 | > 20 | > 20 | 
O=C(O)CCC[P+](c1ccccc1)(c1ccccc1)c1ccccc1 | > 20 | > 20 | > 20 | > 20 | 
O=C(O)CCCCCCC[P+](c1ccccc1)(c1ccccc1)c1ccccc1 | > 20 | > 20 | > 20 | > 20 | 
O=C(CC[P+](c1ccccc1)(c1ccccc1)c1ccccc1)NC(COC(=O)CCCc1ccccc1)(COC(=O)CCCc1ccccc1)COC(=O)CCCc1ccccc1 | 1.01 | 2.59 | 1.75 | 0.97 | 

SMILES | IC50 (A549) [µM] | IC50 (MDA-MB-231) [µM] | IC50 (A-375 [1]) [µM] | IC50 (MCF7) [µM] | also measured
CN(C)c1ccc([P+](CCCCCCCCCC(=O)O)(c2ccc(N(C)C)cc2)c2ccc(N(C)C)cc2)cc1 | 1.87 | 1.94 | 1.25 | 1.19 | 
O=C(CCCc1ccccc1)NCC(CNC(=O)CCCc1ccccc1)(CNC(=O)CCCc1ccccc1)NC(=O)CCC[P+](c1ccccc1)(c1ccccc1)c1ccccc1 | 624 | 9.27 | 4.56 | 2.72 | 
O=C(CCCC[P+](c1ccccc1)(c1ccccc1)c1ccccc1)NC(COC(=O)CCCc1ccccc1)(COC(=O)CCCc1ccccc1)COC(=O)CCCc1ccccc1 | 1.03 | 1.57 | 2.79 | 0.64 | 
O=C(O)CCCCCCCCCCC[P+](c1ccccc1)(c1ccccc1)c1ccccc1 | > 20 | > 20 | > 20 | > 20 | 
O=C(O)CCCCCCCCC[P+](c1ccc(F)cc1)(c1ccc(F)cc1)c1ccc(F)cc1 | > 20 | > 20 | > 20 | > 20 | 
CCCS(=O)(=O)Nc1ccc(F)c(C(=O)c2c[nH]c3ncc(-c4ccc(Cl)cc4)cc23)c1F [VEMURAFENIB] |  |  |  |  | Activity [11]: Non-Toxic; Activity (A-375 [12]): Active; Activity (A-375 [13]): Active; Activity (A-375 [14]): Active
O=C(CCCc1ccccc1)NCC(CNC(=O)CCCc1ccccc1)(CNC(=O)CCCc1ccccc1)NC(=O)CCCC[P+](c1ccccc1)(c1ccccc1)c1ccccc1 | 2.15 | 3.51 | 232 | 2.02 | 
O=C(CCCc1ccccc1)NCC(CNC(=O)CCCc1ccccc1)(CNC(=O)CCCc1ccccc1)NC(=O)CCCCCCCCC[P+](c1ccc(C(F)(F)F)cc1)(c1ccc(C(F)(F)F)cc1)c1ccc(C(F)(F)F)cc1 | 2.11 | 2.19 | 1.98 | 1.91 | IC50 at 72 h [15]: > 20 µM; IC50 at 72 h [16]: > 20 µM; IC50 at 72 h [17]: > 20 µM; IC50 at 72 h [18]: > 20 µM
O=C(O)CCCCCCCCC[P+](c1ccc(C(F)(F)F)cc1)(c1ccc(C(F)(F)F)cc1)c1ccc(C(F)(F)F)cc1.[Br-] | > 20 | > 20 | > 20 | > 20 | Activity (A-375 [19]): 19.88%; Activity (A-375 [20]): 68.44%; Activity (A-375 [21]): 11.68%
O=C(CCCc1ccccc1)NCC(CNC(=O)CCCc1ccccc1)(CNC(=O)CCCc1ccccc1)NC(=O)CC[P+](c1ccccc1)(c1ccccc1)c1ccccc1 | 5.3 | 9.64 | 5.05 | 3.34 | 
O=C(O)CCCCC[P+](c1ccccc1)(c1ccccc1)c1ccccc1 | > 20 | > 20 | > 20 | > 20 | 
COc1cccc([P+](CCCCCCCCCC(=O)NC(CNC(=O)CCCc2ccccc2)(CNC(=O)CCCc2ccccc2)CNC(=O)CCCc2ccccc2)(c2cccc(OC)c2)c2cccc(OC)c2)c1 | 0.97 | 0.57 | 0.66 | 0.79 | 
COC(=O)CCCc1ccccc1 |  |  | > 2000 |  | 
Cc1ccc([P+](CCCCCCCCCC(=O)NC(CNC(=O)CCCc2ccccc2)(CNC(=O)CCCc2ccccc2)CNC(=O)CCCc2ccccc2)(c2ccc(C)cc2)c2ccc(C)cc2)cc1 | 0.73 | 0.44 | 0.62 | 0.5 | 
O=C(CCCc1ccccc1)NCC(CNC(=O)CCCc1ccccc1)(CNC(=O)CCCc1ccccc1)NC(=O)CCCCCCCCCCC[P+](c1ccccc1)(c1ccccc1)c1ccccc1 | 0.57 | 0.24 | 0.36 | 0.44 | 
COc1cccc2c1C(=O)c1c(O)c3c(c(O)c1C2=O)C[C@@](O)(C(=O)CO)C[C@@H]3O[C@H]1C[C@H](N)[C@H](O)[C@H](C)O1 [DOXORUBICIN] | 0.42 | 0.47 | 0.33 | 0.4 | 
O=C(CCCCC[P+](c1ccccc1)(c1ccccc1)c1ccccc1)NC(COC(=O)CCCc1ccccc1)(COC(=O)CCCc1ccccc1)COC(=O)CCCc1ccccc1 | 1.08 | 2.68 | 4.66 | 0.91 | 
